Measured values published in ChEMBL document CHEMBL5113536, “Triphosphate Prodrugs of the Anti-HIV-Active Compound 3'-Deoxy-3'-fluorothymidine (FLT)” (J Med Chem, 2022).
Blank lines part the entries; values can stand above or below the compound they belong to. The source made the active and inactive calls. The calls are words filed in the database; no cut-off is given here.

How the values were obtained:
[1] = Chemical stability in PBS buffer assessed half life measured after 24 hrs in presence of CEM/0 cell extract medium by RP-HPLC analysis relative to control; assay type: physicochemical; details: human, PBS buffer with CEM/0 cell extract
[2] = Chemical stability in PBS buffer assessed dephosphorylated half life measured after 24 hrs in presence of CEM/0 cell extract medium by RP-HPLC analysis relative to control; assay type: physicochemical; details: human, PBS buffer with CEM/0 cell extract
[3] = Metabolic stability of the compound in pig liver extract assessed as half life measured after 24 hrs in presence of pig liver extract medium by RP-HPLC analysis; assay type: ADME, tissue-based, Sus scrofa
[4] = Stability of the compound assessed as cleaved half life in presence of CEM/0 cell extract medium measured upto 25 hrs by RP-HPLC analysis; assay type: physicochemical; details: human
[5] = Stability in buffer assessed as pig liver esterase-mediated clevage of first masking group half life at pH 7.3 by RP-HPLC analysis; assay type: ADME, tissue-based
[6] = Stability in PBS buffer assessed as clevage of first masking group half life in at pH 7.3 in presence of CEM/0 cell extract medium by RP-HPLC analysis; assay type: physicochemical; details: human, PBS buffer with CEM/0 cell extract
[7] = Metabolic stability of the compound in mouse liver extract assessed as compound remaining measured after 24 hrs in presence of mouse liver extract medium by RP-HPLC analysis relative to control; assay type: ADME, tissue-based; details: read-out: Stability
[8] = target: DNA polymerase beta (Homo sapiens) (UniProt P06746); assay: Substrate activity at human DNA polymerase beta using 5'-Cy3-CGTTG GTCCT GAAGG AGGAT AGG1T-3' as primer and 3'-GCAACCAGGACTTCCTCCTATCCAAAGACA-5' as template incubated at 37 degree C for 60 mins and at 80 degreeC for 3 mins by primer extension assay; details: time 63.0 min
[9] = tested on: Human immunodeficiency virus; assay: Substrate activity at HIV reverse transcriptase assessed as DNA elongation using 5'-Cy3-CGTTG GTCCT GAAGG AGGAT AGG1T-3' as primer and 3'-GCAACCAGGACTTCCTCCTATCCAAAGACA-5' as template incubated at 37 degree C for 15 mins and at 80 degreeC for 3 mins by primer extension assay; details: time 18.0 min
[10] = Metabolic stability of the compound in mouse liver extract assessed as hydrolysis half life measured after 24 hrs in presence of mouse liver extract medium by RP-HPLC analysis; assay type: ADME, tissue-based
[11] = tested on: Human immunodeficiency virus; assay: Substrate activity at HIV reverse transcriptase assessed as DNA elongation using 5'-Cy3-CGTTG GTCCT GAAGG AGGAT AGG1T-3' as primer and 3'-GCAACCAGGACTTCCTCCTATCCAAAGACA-5' as template incubated at 37 degree C for 15 mins and at 80 degreeC for 3 mins in presence of TTP by primer extension assay; details: time 18.0 min
[12] = tested on: Human immunodeficiency virus 1; assay: Antiviral activity against HIV1 HE strain infected in CEM/0 cells assessed as inhibition of HIV induced cytopathogenic effects; assay type: functional, organism-based; details: Human immunodeficiency virus 1, HE, CCRF-CEM
[13] = Cytotoxicity in human CEM/0 cells assessed as reduction in cell viability; assay type: toxicity, cell-based; details: CEM/0 cells (CCRF-CEM)
[14] = tested on: Human immunodeficiency virus 2; assay: Antiviral activity against […] HIV2 ROD infected in CEM-TK(-) cells assessed as inhibition of HIV induced cytopathogenic effects; assay type: functional, organism-based; details: Human immunodeficiency virus 2, ROD
[15] = tested on: Human immunodeficiency virus 2; assay: Antiviral activity against HIV2 ROD infected in CEM/0 cells assessed as inhibition of HIV induced cytopathogenic effects; assay type: functional, organism-based; details: Human immunodeficiency virus 2, ROD, CCRF-CEM

Structure (SMILES): CCCCCCCCCCCCCCCCOP(=O)(OCc1ccc(OC(=O)CCC)cc1)OP(=O)(O)OP(=O)(O)OC[C@H]1O[C@@H](n2cc(C)c(=O)[nH]c2=O)C[C@@H]1F.N.N (stereo partly drawn)
- half-life [3]: 0.582 min
- half-life [4]: 144 min

Structure (SMILES): CCCCCCCCCC(=O)Oc1ccc(COP(=O)(OCc2ccc(OC(=O)CCCCCCCCC)cc2)OP(=O)([O-])OP(=O)([O-])OC[C@H]2O[C@@H](n3cc(C)c(=O)[nH]c3=O)C[C@@H]2F)cc1.[Na+].[Na+]
- half-life [5]: 3.16 min
- half-life [6]: 81 h
- half-life [4]: 140 min

Now from value to compound, other results behind:

- half-life [1]: 30 min
- half-life [2]: 25.8 min
Structure (SMILES): Cc1cn([C@H]2C[C@H](O)[C@@H](COP(=O)(O)OP(=O)(O)OP(=O)(O)O)O2)c(=O)[nH]c1=O [DEOXYTHYMIDINE_TRIPHOSPHATE]

- remaining at 24 h [7]: 39%
Structure (SMILES): CCCCCCCCCCCCCCCCOP(=O)(O)OP(=O)(O)OP(=O)(O)OC[C@H]1O[C@@H](n2cc(C)c(=O)[nH]c2=O)C[C@@H]1F

- Activity [8]: Active
- Activity [9]: Active
- half-life [1]: 30 min
- half-life [10]: 5.04 min
- half-life [2]: 25.8 min
- Activity [11]: Active
Structure (SMILES): Cc1cn([C@H]2C[C@H](F)[C@@H](COP(=O)(O)OP(=O)(O)OP(=O)(O)O)O2)c(=O)[nH]c1=O.N.N.N.N

- EC50 [12]: 1.6 nM
- EC50 [14]: 70000 nM
- EC50 [15]: 3.2 nM
Structure (SMILES): Cc1cn([C@H]2C[C@H](F)[C@@H](CO)O2)c(=O)[nH]c1=O [ALOVUDINE]
- CC50 [13]: > 100000 nM
